The values below are quoted from earlier work in patent publication US11737956B2, “Composition for intracanal medication” (MARUCHI, priority 2016, dated 2023).

The conditions of the data set: very small amount of dissolution in water.

As for `[Ca+2].[OH-].[OH-]` [calcium hydroxide], the pH of water is 12.4.
